# Reference: ChEMBL document CHEMBL5390317, “Novel Indane-Containing NBTIs with Potent Anti-Gram-Negative Activity and Minimal hERG Inhibition” (ACS Med Chem Lett, 2023)
# Tests used:
# [1] = tested on: Escherichia coli; assay: Antibacterial activity against Escherichia coli ATCC BAA-2340 assessed as inhibition in bacterial growth incubated for 20 to 24 hrs by CLSI based broth microdilution method; assay type: functional
# [2] = tested on: Pseudomonas aeruginosa; assay: Antibacterial activity against Pseudomonas aeruginosa NCTC 11451 assessed as inhibition in bacterial growth incubated for 20 to 24 hrs by CLSI based broth microdilution method; assay type: functional
# [3] = tested on: Escherichia coli; assay: Antibacterial activity against Escherichia coli ATCC 25922 assessed as inhibition in bacterial growth incubated for 20 to 24 hrs by CLSI based broth microdilution method; assay type: functional; conditions: time 20-24 hrs
# [4] = tested on: Klebsiella pneumoniae; assay: Antibacterial activity against Klebsiella pneumoniae ATCC BAA-1705 assessed as inhibition in bacterial growth incubated for 20 to 24 hrs by CLSI based broth microdilution method; assay type: functional; conditions: time 20-24 hrs
# [5] = tested on: Pseudomonas aeruginosa; assay: Antibacterial activity against Pseudomonas aeruginosa ATCC 27853 assessed as inhibition in bacterial growth incubated for 20 to 24 hrs by CLSI based broth microdilution method; assay type: functional; conditions: time 20-24 hrs
# [6] = tested on: Escherichia coli; assay: Antibacterial activity against Escherichia coli K-12 BW25113 assessed as inhibition in bacterial growth incubated for 20 to 24 hrs by CLSI based broth microdilution method; assay type: functional; conditions: Escherichia coli, K-12 BW25113, time 20-24 hrs; read-out: MIC
# [7] = tested on: Acinetobacter baumannii; assay: Antibacterial activity against Acinetobacter baumannii ATCC BAA-747 assessed as inhibition in bacterial growth incubated for 20 to 24 hrs by CLSI based broth microdilution method; assay type: functional
# [8] = tested on: Staphylococcus aureus; assay: Antibacterial activity against Staphylococcus aureus ATCC BAA-1556 assessed as inhibition in bacterial growth incubated for 20 to 24 hrs by CLSI based broth microdilution method; assay type: functional
# [9] = tested on: Acinetobacter baumannii; assay: Antibacterial activity against Acinetobacter baumannii ATCC 51432 assessed as inhibition in bacterial growth incubated for 20 to 24 hrs by CLSI based broth microdilution method; assay type: functional
# [10] = tested on: Staphylococcus aureus; assay: Antibacterial activity against Staphylococcus aureus ATCC 29213 assessed as inhibition in bacterial growth incubated for 20 to 24 hrs by CLSI based broth microdilution method; assay type: functional; conditions: Staphylococcus aureus, ATCC 29213; time 20-24 hrs; read-out: MIC
# [11] = tested on: Klebsiella pneumoniae; assay: Antibacterial activity against Klebsiella pneumoniae ATCC 700603 assessed as inhibition in bacterial growth incubated for 20 to 24 hrs by CLSI based broth microdilution method; assay type: functional
# [12] = tested on: Escherichia coli; assay: Antibacterial activity against Escherichia coli ATCC 35218 assessed as inhibition in bacterial growth incubated for 20 to 24 hrs by CLSI based broth microdilution method; assay type: functional
# [13] = Inhibition of Escherichia coli topoisomerase 4 incubated for 120 mins by Transcreener ADP2 FI assay
# [14] = tested on: Klebsiella pneumoniae; assay: Antibacterial activity against Klebsiella pneumoniae ATCC 10031 assessed as inhibition in bacterial growth incubated for 20 to 24 hrs by CLSI based broth microdilution method; assay type: functional; conditions: time 20-24 hrs
# [15] = target: DNA gyrase (Escherichia coli, UniProt P0AES4+P0AES6); assay: Inhibition of Escherichia coli DNA gyrase incubated for 80 mins by Transcreener ADP2 FI assay; assay type: protein-complex assay
# [16] = tested on: Pseudomonas aeruginosa; assay: Antibacterial activity against Pseudomonas aeruginosa NCTC 13437 assessed as inhibition in bacterial growth incubated for 20 to 24 hrs by CLSI based broth microdilution method; assay type: functional
# [17] = tested on: Acinetobacter baumannii; assay: Antibacterial activity against Acinetobacter baumannii ATCC 19606 assessed as inhibition in bacterial growth incubated for 20 to 24 hrs by CLSI based broth microdilution method; assay type: functional; conditions: time 20-24 hrs
# [18] = tested on: Escherichia coli; assay: Antibacterial activity against Escherichia coli K-12 BW25113 deltaTolC assessed as inhibition in bacterial growth incubated for 20 to 24 hrs by CLSI based broth microdilution method; assay type: functional; conditions: time 20-24 hrs
# [19] = tested on: Klebsiella pneumoniae; assay: Antibacterial activity against Klebsiella pneumoniae ATCC BAA-2146 assessed as inhibition in bacterial growth incubated for 20 to 24 hrs by CLSI based broth microdilution method; assay type: functional
# [20] = target: Voltage-gated inwardly rectifying potassium channel KCNH2 (Homo sapiens, UniProt Q12809); assay: (§1) Inhibition of hERG potassium channel expressed in CHO cells by electrophysiological patch clamp assay; assay type: toxicity, cell-based; conditions: for IC20: human, cho
# Sequence of Voltage-gated inwardly rectifying potassium channel KCNH2 (Q12809 whole entry): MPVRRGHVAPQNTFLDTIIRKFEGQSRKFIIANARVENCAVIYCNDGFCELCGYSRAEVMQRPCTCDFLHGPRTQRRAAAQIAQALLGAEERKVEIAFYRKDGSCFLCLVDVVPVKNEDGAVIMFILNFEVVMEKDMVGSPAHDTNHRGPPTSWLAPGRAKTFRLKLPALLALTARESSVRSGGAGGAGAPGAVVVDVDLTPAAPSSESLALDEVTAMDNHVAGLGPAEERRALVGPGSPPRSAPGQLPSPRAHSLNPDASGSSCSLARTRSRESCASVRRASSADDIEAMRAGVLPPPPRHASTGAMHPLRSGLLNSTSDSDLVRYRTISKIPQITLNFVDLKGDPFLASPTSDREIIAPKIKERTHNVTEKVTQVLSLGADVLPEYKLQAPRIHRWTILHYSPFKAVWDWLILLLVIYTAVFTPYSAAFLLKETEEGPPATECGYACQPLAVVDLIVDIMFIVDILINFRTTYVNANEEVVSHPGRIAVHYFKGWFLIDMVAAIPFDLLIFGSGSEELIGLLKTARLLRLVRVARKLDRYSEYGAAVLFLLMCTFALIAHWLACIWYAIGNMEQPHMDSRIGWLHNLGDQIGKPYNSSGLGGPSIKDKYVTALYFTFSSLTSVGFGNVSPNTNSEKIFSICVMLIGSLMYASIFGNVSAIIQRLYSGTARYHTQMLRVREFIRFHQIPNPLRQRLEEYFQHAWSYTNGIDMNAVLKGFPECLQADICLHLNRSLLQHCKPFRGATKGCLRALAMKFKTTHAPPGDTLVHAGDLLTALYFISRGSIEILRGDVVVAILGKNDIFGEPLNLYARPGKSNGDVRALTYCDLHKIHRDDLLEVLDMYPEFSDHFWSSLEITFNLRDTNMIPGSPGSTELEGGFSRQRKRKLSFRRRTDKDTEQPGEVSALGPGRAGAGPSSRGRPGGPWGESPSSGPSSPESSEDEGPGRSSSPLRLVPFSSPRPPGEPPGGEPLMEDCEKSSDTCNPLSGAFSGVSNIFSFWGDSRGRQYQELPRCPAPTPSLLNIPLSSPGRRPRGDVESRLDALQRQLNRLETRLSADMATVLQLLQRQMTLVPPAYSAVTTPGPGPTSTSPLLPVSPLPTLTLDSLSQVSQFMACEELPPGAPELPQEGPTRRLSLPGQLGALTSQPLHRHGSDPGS
# [21] = target: T1, hERG (KCNH2) (Homo sapiens, UniProt Q12809); assay: Inhibition of hERG potassium channel expressed in CHO cells at 1 uM by electrophysiological patch clamp assay relative to control; assay type: toxicity, cell-based; conditions: CHO cells expressing hERG
# T1 sequence (Q12809 whole entry): as above
# [22] = target: T1, hERG (KCNH2); assay: Inhibition of hERG potassium channel expressed in CHO cells at 10 uM by electrophysiological patch clamp assay relative to control; assay type: toxicity, cell-based; conditions: CHO cells expressing hERG
# [23] = target: T1, hERG (KCNH2); assay: as §1; assay type: toxicity, cell-based; conditions: human, CHO cells expressing hERG
# [24] = Escherichia coli, ATCC BAA-2340, time 20-24 hrs, read-out: MIC
# [25] = Pseudomonas aeruginosa, NCTC 11451, time 20-24 hrs, read-out: MIC
# [26] = Acinetobacter baumannii, ATCC BAA-747, time 20-24 hrs, read-out: MIC
# [27] = Staphylococcus aureus, ATCC BAA-1556, time 20-24 hrs, read-out: MIC
# [28] = Acinetobacter baumannii, ATCC 51432, time 20-24 hrs, read-out: MIC
# [29] = Klebsiella pneumoniae, ATCC 700603, time 20-24 hrs, read-out: MIC
# [30] = Escherichia coli, ATCC 35218, time 20-24 hrs, read-out: MIC
# [31] = Pseudomonas aeruginosa, NCTC 13437, time 20-24 hrs, read-out: MIC
# [32] = Klebsiella pneumoniae, ATCC BAA-2146, time 20-24 hrs, read-out: MIC
SMILES,"MIC [1, 24] [µg/mL]","MIC [2, 25] [µg/mL]",MIC [3] [µg/mL],MIC [4] [µg/mL],MIC [5] [µg/mL],MIC [6] [µg/mL],"MIC [7, 26] [µg/mL]","MIC [8, 27] [µg/mL]","MIC [9, 28] [µg/mL]",MIC [10] [µg/mL],"MIC [11, 29] [µg/mL]","MIC [12, 30] [µg/mL]",IC50 [13] [nM],MIC [14] [µg/mL],IC50 [15] [nM],"MIC [16, 31] [µg/mL]",MIC [17] [µg/mL],MIC [18] [µg/mL],"MIC [19, 32] [µg/mL]",IC50 [20] [nM],other results
O=C(O)COc1cc(F)c2c(c1)CC(CNCCC1CN(c3ccc4c(n3)NC(=O)CO4)C(=O)O1)C2 (stereo not given),> 64,> 64,> 64,> 64,> 64,> 64,> 64,> 64,> 64,> 64,> 64,> 64,370,16,600,> 64,> 64,8,> 64,–,–
C[C@H](C(=O)Nc1cc(F)c2c(c1)CC(CNCCC1CN(c3cnc4c(n3)NC(=O)CO4)C(=O)O1)C2)N(C)C (stereo in doubt; 2h),–,–,–,–,–,–,–,–,–,–,–,–,–,–,–,–,–,–,–,126000,MIC ([2]; time 20-24 hrs): 4 µg/mL; MIC ([7]; time 20-24 hrs): 0.125 µg/mL; MIC ([8]; time 20-24 hrs): 1 µg/mL; MIC ([9]; time 20-24 hrs): 8 µg/mL; IC20 [20]: 55000 nM; MIC ([11]; time 20-24 hrs): 2 µg/mL; MIC ([16]; time 20-24 hrs): 4 µg/mL
C[C@@H](N)COc1cc(F)c2c(c1)CC(CN1CCC3(CC1)CN(c1cnc4c(n1)NC(=O)CO4)C(=O)O3)C2 (stereo not given in full),0.125,0.5,≤ 0.06,0.5,0.125,≤ 0.06,≤ 0.06,≤ 0.06,0.5,≤ 0.06,1,≤ 0.06,16,≤ 0.06,24,0.5,0.25,≤ 0.06,1,> 20000,inhibition at 1 µM [21]: 6.7%; inhibition at 10 µM [22]: 12%; IC20 [23]: > 10000 nM
CS(=O)(=O)NCCOc1cc(C#N)c2c(c1)CC(CNCCC1CN(c3ccc4c(n3)NC(=O)CO4)C(=O)O1)C2 (stereo not given),2,4,1,16,1,0.5,2,0.5,4,0.25,16,1,32,≤ 0.06,26,4,4,≤ 0.06,16,> 20000,inhibition at 1 µM [21]: < 1%; inhibition at 10 µM [22]: 30%; IC20 [23]: 5900 nM

# Further lines, with some results ahead:
"MIC [1, 24] [µg/mL]","MIC [2, 25] [µg/mL]",MIC [3] [µg/mL],MIC [4] [µg/mL],MIC [5] [µg/mL],MIC [6] [µg/mL],"MIC [7, 26] [µg/mL]","MIC [8, 27] [µg/mL]","MIC [9, 28] [µg/mL]",MIC [10] [µg/mL],"MIC [11, 29] [µg/mL]","MIC [12, 30] [µg/mL]",IC50 [13] [nM],MIC [14] [µg/mL],IC50 [15] [nM],"MIC [16, 31] [µg/mL]",MIC [17] [µg/mL],MIC [18] [µg/mL],"MIC [19, 32] [µg/mL]",SMILES,IC50 [20] [nM],other results
–,–,–,–,–,–,–,–,–,–,–,–,13,–,26,–,–,–,–,C[C@H](C(=O)Nc1cc(F)c2c(c1)CC(CNCCC1CN(c3cnc4c(n3)NC(=O)CO4)C(=O)O1)C2)N(C)C (stereo in doubt; 2g),251000,MIC ([1]; time 20-24 hrs): 0.125 µg/mL; MIC ([2]; time 20-24 hrs): 2 µg/mL; MIC ([8]; time 20-24 hrs): 0.5 µg/mL; MIC ([9]; time 20-24 hrs): 4 µg/mL; IC20 [20]: 81000 nM; MIC ([11]; time 20-24 hrs): 1 µg/mL; MIC ([12]; time 20-24 hrs): 0.125 µg/mL; MIC ([19]; time 20-24 hrs): 8 µg/mL
≤ 0.06,1,≤ 0.06,1,0.5,≤ 0.06,≤ 0.06,≤ 0.06,≤ 0.06,≤ 0.06,1,0.125,4,≤ 0.06,–,0.5,0.125,≤ 0.06,4,N#Cc1cccc2c1CC(CNCCC1CN(c3ccc4c(n3)NC(=O)CO4)C(=O)O1)C2 (stereo not given),–,inhibition at 1 µM [21]: 55%; inhibition at 10 µM [22]: 99%; IC20 [23]: 450 nM
